Laboratory results as given in patent publication US20180194836A1, “PREVENTION OF METASTASIS AND RECURRENCE AFTER PRIMARY CANCER TREATMENT” (ENCYT TECHNOLOGIES, INC., priority 2014, published 2018).

B1: PDGFBB: Platelet derived growth factor BB added to cultured CTCs (protein, UniProt P01127 82-190, looked up)
Platelet-derived growth …: SLGSLTIAEPAMIAECKTRTEVFEISRRLIDRTNANFLVWPPCVEVQRCSGCCNNRNVQCRPTQVQLRPVQVRKIEIVRKKPIFKKATVTLEDHLACKCETVAAARPVT
modifications: BB homodimer
notes: Platelet derived growth factor BB added to cultured CTCs

Tests used:
[1] = test system: HCT-15 cells; assay: Cell proliferation / cell subpopulations in HCT-15 cell line after cytokines and cytokine cocktails (flow cytometry); format: cell-based; parameters: unit not given here; settings: HCT-15 cells after exposure to cytokine combinations
Description: Cell proliferation of cancer and/or cancer stem cell populations with selected cytokine and cytokine cocktails on serum starved colorectal carcinoma cell lines. Prior to incubation cells were stained with a cell proliferation dye, which binds stoichiometrically to DNA. Intensity of the dye decreased upon cell division thereby signifying cell proliferation.
Two authenticated colorectal carcinoma cell lines, HCT-15 and SW-620, were used to test the effect of different cytokine and cytokine cocktails, including IL-6, HGF, PGE-2, TGF-beta and MMP-9 alone or in a cocktail, on cell proliferation, EMT and cancer stem cell populations.
In order to evaluate stem cell populations, cells were synchronized by serum starvation for 72 hours before seeding in 24-well ultra low attachment plates at a density of 200,000 cells/well. Cells were then detached using trypsin EDTA and washed twice with PBS (without Calcium or Magnesium). A cell proliferation dye, eFluor 450 was used to label cells. Cells were grown with DMEM with high glucose and 2 mM Gluatmine without FBS in the presence of selected cytokines and or cytokine cocktails over a period of 72 hrs.
Cells that were grown in 5% serum were stained with the following antibody cocktails: CD24FITC, CD44PE and CD24FITC, CD133PE. Cells were also stained with a fixable live/dead efluor dye 506 to exclude dead cells. In parallel, cells were grown in the presence of 5% serum to evaluate CSC markers.
(§1) Cells were fixed in 1% Paraformaldehyde for 15 minutes at room temperature and run on Flowsight using 2 lasers (488 nm at 60 mW and 405 nm at 30 mW). For cell lines, 100,000 events were collected whilst for enriched CTCs all events were collected until the sample finished.
(§2) Flow cytometry data was analysed using IDEAS software. Double events, out of focus events, CD45PerePCy5.5 positive cells (in case of enriched CTCs), dead cells and non-nucleated events were eliminated from the fluorescence analysis of the cell population. FIG. 2 depicts scatterplots of flow cytometry experiments showing the enriched CTCs stained with an antibody containing CD44 after treatment with various cytokines and cytokine cocktails. Hoescht 33258 dye was used to stain nuclei in the case of the HCT-15 cell line and enriched CTCs. All experiments were stained with a fixable live/dead dye eFluor 506 to exclude dead cells.
To evaluate which cocktail combinations were most likely involved in cell proliferation of presumed quiescent stem cells or de-differentiated stein cell-like cells, four cytokines, IL-6, HGF, PGB-2 and TO were added singly or in pairs to HCT-15 cells. Results of combinations that influenced cell proliferation of HCT-15 cells in culture are presented. […] FIG. 4 depicts cell proliferation of subpopulations in the HCT-15 cell line after exposure to various cytokines and cytokine cocktails.

[2] = test system: SW-620 cells; assay: SW-620 cells treated with cytokines then Irinotecan; flow cytometry for stem cell markers and apoptosis; format: cell-based, human; settings: SW-620, preliminary data
Description: SW-620 cells, a human colorectal adenocarcinoma cell line, were treated with cytokines alone or in combination including IL-6, TGF-beta, HGF, PGE-2, IL-6+PGE-2 and TGF-beta+HGF for 24 hours and compared to untreated SW-620 cells as control, Some treated and untreated SW-620 cells were then exposed to 2 μM Irinotecan for 36 hours at which point cells were harvested for flow cytometry to assess for stem cell markers and markers of apoptosis. The percentage of CD44+CD133− cells following treatment with various cytokine and cytokine cocktails is depicted in FIG. 10. Compared to non-cytokine treated cells, combinations with IL-6+PGE-2, and TGF-beta+HGF increased the number and percentage of cells that were CD44+CD133− as shown in FIG. 10 (stem cells). FIG. 11 depicts the percentage of CD44+CD133− cells following treatment with various cytokines and Irinotecan. Treatment with IL-6+Irinotecan and TGF+Irinotecan increased the percentage of CD44+CD133− stem cells to 2% (from zero in non-treated control cells) as shown in FIG. 11. FIG. 12 depicts the percentage of CD44+CD133− cells following treatment with various cytokine cocktails and Irinotecan. A combination of TGF+HGF+Irinotecan increased the percentage of CD44+CD133− stem cells to 2% (from zero in non-treated control cells) as shown in FIG. 12. […]

[3] = test system: enriched circulating tumour cells (CTCs); assay: Cell proliferation / cancer stem cell markers in enriched CTCs from a patient with metastatic prostate cancer cultured with cytokine cocktails; format: cell-based, human; settings: for EpCAM+CD133+ gated subpopulation / EpCAM+CD133− gated subpopulation / EpCAM−CD133+ gated subpopulation / EpCAM−CD133− gated subpopulation: enriched CTCs (metastatic prostate cancer patient) cultured with cytokine or cytokine cocktail, flow cytometry, antibody cocktail EpCAM A488, CD133 PE, CD45 PerCPCy5.5, percentages of gated subpopulations; for proliferation of EpCAM-CD44+ cell sub-population: no serum, no cytokines 2.2%; for Cell population EpCAM+CD44+ / Cell population EpCAM+CD44− / Cell population EpCAM−CD44+ / Cell population EpCAM−CD44−: metastatic prostate cancer patient, cell culture period 8 days
Description: as §1
as §2, with “cocktails.” for “cocktails. Hoescht 33258 dye was used to stain nuclei in the case of the HCT-15 cell line and enriched CTCs. All experiments were stained with a fixable live/dead dye eFluor 506 to exclude dead cells.”
In order to determine if selected cytokines influence cell proliferation of circulating tumour cells (CTCs), whole blood was collected from a patient with metastatic prostate cancer. Circulating tumour cells were enriched from whole blood using RosetteSep CTC Enrichment cocktail. Briefly, samples of whole blood were incubated with RosetteSep (anti CD 56 for 20 minutes at room temperature). Phosphate buffered saline containing 2% Fetal Bovine Serum was added to the samples and layered on a Ficoll Paque gradient. After centrifugation, the supernatant which contained CTCs was washed twice with PBS containing 2% FBS. Equal volumes of the cell suspension were seeded into a 24-well ultra-low attachment polystyrene plate. […] FIG. 3 depicts scatterplots of flow cytometry experiments enriched CTCs stained with an antibody containing CD133 after treatment with various cytokines and cytokine cocktails.
FIG. 6 depicts cell proliferation of subpopulations in cultured CTCs after exposure to various cytokines and cytokine cocktails. Cells were stained using an antibody containing CD44 PE.
Cells were stained using an antibody containing CD133 PE.

[4] = early use after coronary artery bypass surgery; cited from earlier work
[5] = test system: breast cancer; settings: perioperative, 9-18 month period of greatest risk, compared to other analgesics or NSAIDs post-operatively; cited from earlier work
[6] = test system: B16 amelanotic melanoma model; settings: cited from earlier work
[7] = test system: enriched circulating tumour cells (CTCs); assay: Enriched CTCs from a patient with colorectal cancer cultured with IL-6, IL-8 or PDGFBB (EpCAM/CD133 flow cytometry); format: cell-based, human; settings: for EpCAM+CD133+ gated subpopulation / EpCAM+CD133− gated subpopulation / EpCAM−CD133+ gated subpopulation / EpCAM−CD133− gated subpopulation: colorectal cancer patient
Source text: A blood sample was collected from a patient with colorectal cancer six days after surgery, Blood samples were enriched for CTCs using RosetteSep CD 56 kit according to standard protocol. Prior to cell culture, cells were stained with the following antibody cocktail: EpCAM A488, CD133PE, CD 45 PerCP Cy5.5, and Lgr5-PE-Vio770. Cells were either cultured in low attachment well plates without cytokines (control cells) or with three different cytokines (IL-6, IL-8 or PDGFBB).
Flow cytometry data was analysed using IDEAS software. Double events, out of focus events, CD45PercPCy5.5 positive cells, dead cells and non-nucleated events were eliminated from the fluorescence analysis of the cell population. Hoescht 33258 dye was used to stain nuclei of enriched CTCs. All experiments were stained with a fixable live/dead dye eFluor 506 to exclude dead cells.

[8] = test system: colon cancer; settings: cited from earlier work
[9] = test system: premetastatic niche formation; settings: disruption of niche formation; cited from earlier work

| Molecule | CD24+CD44− cell subpopulation [1] | CD44+CD24+ cell subpopulation [1] | CD44+CD24− cell subpopulation [1] | CD44−CD24− cell subpopulation [1] | EpCAM+CD133+ gated subpopulation [3] | EpCAM+CD133− gated subpopulation [3] | EpCAM−CD133+ gated subpopulation [3] | EpCAM−CD133− gated subpopulation [3] | Cell population EpCAM+CD44+ ([3]; enriched CTCs) | Cell population EpCAM+CD44− ([3]; enriched CTCs) | Cell population EpCAM−CD44+ ([3]; enriched CTCs) | Cell population EpCAM−CD44− ([3]; enriched CTCs) | EpCAM+CD133+ gated subpopulation [7] | EpCAM+CD133− gated subpopulation [7] | EpCAM−CD133+ gated subpopulation [7] | EpCAM−CD133− gated subpopulation [7] | other results |
| --- | --- | --- | --- | --- | --- | --- | --- | --- | --- | --- | --- | --- | --- | --- | --- | --- | --- |
| CCCCC[C@H](O)/C=C/[C@H]1[C@H](O)CC(=O)[C@@H]1C/C=C\CCCC(=O)O [PGE-2, prostaglandin E2, reference compound] | 58.7 | 7.3 | 0.61 | 32.4 | 10.4% | 0% | 86.7% | 2.61% | 27.2 percentage of gated cells | 1.75 percentage of gated cells | 4.23 percentage of gated cells | 65.5 percentage of gated cells |  |  |  |  | enrichment of Irinotecan treated cells for cancer stem cells above non-cytokine treated controls [2]: enriched; proliferation of EpCAM-CD44+ cell sub-population ([3]; enriched CTCs, 8 days culture): 4.23 % gated |
| CC(=O)Oc1ccccc1C(=O)O [aspirin] |  |  |  |  |  |  |  |  |  |  |  |  |  |  |  |  | survival compared to no aspirin [4]: superior survival |
| O=C(c1ccccc1)c1ccc2n1CCC2C(=O)O (stereo not shown) [ketorolac] |  |  |  |  |  |  |  |  |  |  |  |  |  |  |  |  | reduction in relapses [5]: 5 fold |
| CCCCC[C@H](O)/C=C/[C@@H]1[C@H]2C/C(=C/CCCC(=O)O)O[C@H]2C[C@H]1O [prostacyclin] |  |  |  |  |  |  |  |  |  |  |  |  |  |  |  |  | hepatic metastases [6]: complete elimination; pulmonary metastases [6]: reduction |
| HGF: Hepatocyte Growth Factor, cytokine added to cultured cancer cells | 58.6 | 3.29 | 0.31 | 35.9 | 17.2% | 0.2% | 80.8% | 1.58% | 16.8 percentage of gated cells | 4.89 percentage of gated cells | 2.12 percentage of gated cells | 74.9 percentage of gated cells |  |  |  |  |  |
| IL-6: cytokine Interleukin 6 added to cultured cancer cells | 49.1 | 5.63 | 1.35 | 43.2 | 23.5% | 0% | 74.7% | 1.46% | 35.6 percentage of gated cells | 2.66 percentage of gated cells | 6.14 percentage of gated cells | 55 percentage of gated cells | 0.1 percentages of gated subpopulations | 2.98 percentages of gated subpopulations | 0.12 percentages of gated subpopulations | 90.5 percentages of gated subpopulations | increase in the EpCAM+CD133− subpopulation (significance, p<0.05) ([7]; compared to control): statistically significant; enrichment of Irinotecan treated cells for cancer stem cells above non-cytokine treated controls [2]: enriched; percentage of cells positive for both EpCAM and CD44 ([3]; enriched CTCs, 8 days culture): highest; proliferation of EpCAM-CD44+ cell sub-population ([3]; enriched CTCs, 8 days culture): 6.14 % gated |
| Il-8: cytokine IL-8 added to cultured CTCs |  |  |  |  |  |  |  |  |  |  |  |  | 0.13 percentages of gated subpopulations | 2.51 percentages of gated subpopulations | 0.09 percentages of gated subpopulations | 90.8 percentages of gated subpopulations |  |
| bevacizumab: antiangiogenic agent |  |  |  |  |  |  |  |  |  |  |  |  |  |  |  |  | relapse ([8]; during the year on treatment, started 29-50 days post-operatively, with adjuvant chemotherapy): delayed relapse; overall survival ([8]; versus chemotherapy-only group): no net benefit; metastatic colonization [9]: prevented metastatic colonization |
| B1 |  |  |  |  |  |  |  |  |  |  |  |  | 0.18 percentages of gated subpopulations | 2.29 percentages of gated subpopulations | 0.1 percentages of gated subpopulations | 90.5 percentages of gated subpopulations |  |
